Data: patent publication US9476099B2 (TRUSTEES OF DARTMOUTH COLLEGE, priority 2012, dated 2016)

Tested on: NT2/D1-R1 control and DNMT3B knockdown cells
Assay: Genome-wide expression analysis with PAM clusters, control and DNMT3B knockdown cells (Tables 8-14)
Settings: sh-3B + aza, NT2/D1-R1 DNMT3B knockdown, decitabine 10 nM 3 days

With Nc1ncn([C@H]2C[C@H](O)[C@@H](CO)O2)c(=O)n1 [aza] the “ACSS2 (NM_0010765) gene expression, Mean” value was 406.693, the “ADCK1 (NM_020421) gene expression, Mean” value was 305.179 and the “ADCY1 (NM_021116) gene expression, Mean” value was 138.949. For the same compound, the “AGAP1 (NM_014914) gene expression, Mean” value was 225.72, the “AK056312 gene expression, Mean” value was 471.555 and the “ANKRD9 (NM_152326) gene expression, Mean” value was 896.077. For the same compound, the “APEH (NM_001640) gene expression, Mean” value was 1236.16, the “APP (NM_201414) gene expression, Mean” value was 393.758 and the “C1orf115 (NM_024709) gene expression, Mean” value was 380.885. The “C2orf34 (NM_024766) gene expression, Mean” value was 286.591, the “C7orf47 (NM_145030) gene expression, Mean” value was 749.147 and the “C16orf35 (NM_0010394) gene expression, Mean” value was 464.104. For the same compound, the “CA4 (NM_000717) gene expression, Mean” value was 1313.05, the “CACNA2D2 (NM_006030) gene expression, Mean” value was 398.095 and the “CD24 (NM_013230) gene expression, Mean” value was 4095.34. The “CD248 (NM_020404) gene expression, Mean” value was 166.587, the “CDC42EP5 (NM_145057) gene expression, Mean” value was 232.63 and the “CDH3 (NM_001793) gene expression, Mean” value was 1031.14. For the same compound, the “CEBPB (NM_005194) gene expression, Mean” value was 886.982, the “CHST13 (NM_152889) gene expression, Mean” value was 184.993 and the “CLASP1 (NM_015282) gene expression, Mean” value was 448.757. The “CLIP2 (NM_032421) gene expression, Mean” value was 216.273, the “COMMD1 (NM_152516) gene expression, Mean” value was 327.95 and the “COMMD7 (NM_0010993) gene expression, Mean” value was 1236.98. For the same compound, the “CRMP1 (NM_0010148) gene expression, Mean” value was 628.721, the “CTNNBIP1 (NM_020248) gene expression, Mean” value was 181.632 and the “CXCL16 (NM_022059) gene expression, Mean” value was 276.818. For the same compound, the “CYP2F1 (NM_000774) gene expression, Mean” value was 134.435, the “CYP2S1 (NM_030622) gene expression, Mean” value was 1003.81 and the “DBC1 (NM_014618) gene expression, Mean” value was 313.757. The “DDIT4 (NM_019058) gene expression, Mean” value was 558.55, the “DGKQ (NM_001347) gene expression, Mean” value was 236.075 and the “DLL3 (NM_016941) gene expression, Mean” value was 150.963. For the same compound, the “DPYSL3 (NM_001387) gene expression, Mean” value was 841.778, the “DYM (NM_017653) gene expression, Mean” value was 332.811 and the “DYSF (NM_003494) gene expression, Mean” value was 345.371. For the same compound, the “EPHA1 (NM_005232) gene expression, Mean” value was 886.512, the “EVI5L (NM_145245) gene expression, Mean” value was 248.688 and the “EVL (NM_016337) gene expression, Mean” value was 840.767. The “EXTL3 (NM_001440) gene expression, Mean” value was 869.111, the “F11R (NM_016946) gene expression, Mean” value was 218.843 and the “FAF1 (NM_007051) gene expression, Mean” value was 266.415. The “FAM125A (NM_138401) gene expression, Mean” value was 558.795, the “FAM127A (NM_0010781) gene expression, Mean” value was 1016.07 and the “FCGBP (NM_003890) gene expression, Mean” value was 279.685. The “FDFT1 (NM_004462) gene expression, Mean” value was 705.216, the “FIGNL2 (NM_0010136) gene expression, Mean” value was 289.159 and the “FLNB (NM_001457) gene expression, Mean” value was 960.275. The “FOXN3 (NM_005197) gene expression, Mean” value was 518.292, the “GAL (NM_015973) gene expression, Mean” value was 1768.85 and the “GAS7 (NM_201433) gene expression, Mean” value was 308.927. For the same compound, the “GLG1 (NM_012201) gene expression, Mean” value was 913.909, the “GRAMD1A (NM_020895) gene expression, Mean” value was 607.142 and the “GTF3C1 (NM_001520) gene expression, Mean” value was 626.338. For the same compound, the “HCFC1R1 (NM_0010020) gene expression, Mean” value was 798.561, the “HESX1 (NM_003865) gene expression, Mean” value was 379.045 and the “HINT2 (NM_032593) gene expression, Mean” value was 706.883. For the same compound, the “HIST3H2A (NM_033445) gene expression, Mean” value was 282.379, the “HIST4H4 (NM_003541) gene expression, Mean” value was 314.561 and the “HK1 (NM_033500) gene expression, Mean” value was 4205.36. The “IDH1 (NM_005896) gene expression, Mean” value was 1445.11, the “IL21R (NM_181078) gene expression, Mean” value was 161.219 and the “JPH3 (NM_020655) gene expression, Mean” value was 214.843. The “KIF1A (NM_004321) gene expression, Mean” value was 150.02, the “KIF1B (NM_015074) gene expression, Mean” value was 393.388 and the “LDB2 (NM_001290) gene expression, Mean” value was 259.706. For the same compound, the “LDOC1 (NM_012317) gene expression, Mean” value was 881.126, the “LHFPL4 (NM_198560) gene expression, Mean” value was 515.175 and the “LONP1 (NM_004793) gene expression, Mean” value was 1192.71. For the same compound, the “LPCAT3 (NM_005768) gene expression, Mean” value was 456.787, the “LRBA (NM_006726) gene expression, Mean” value was 267.501 and the “LRRC33 (NM_198565) gene expression, Mean” value was 257.521. For the same compound, the “MAPK3 (NM_0010400) gene expression, Mean” value was 447.115, the “MAPKAP1 (NM_0010066) gene expression, Mean” value was 274.663 and the “MED30 (NM_080651) gene expression, Mean” value was 707.11. For the same compound, the “MID1IP1 (NM_021242) gene expression, Mean” value was 1496.95, the “MKRN1 (NM_013446) gene expression, Mean” value was 3678.37 and the “MSRB2 (NM_012228) gene expression, Mean” value was 698.39. The “MYO5C (NM_018728) gene expression, Mean” value was 203.184, the “NANOG (NM_024865) gene expression, Mean” value was 1405.64 and the “NCOR2 (NM_006312) gene expression, Mean” value was 1205.94. The “NDUFS4 (NM_002495) gene expression, Mean” value was 375.498, the “NFE2L3 (NM_004289) gene expression, Mean” value was 395.959 and the “NGFRAP1 (NM_206917) gene expression, Mean” value was 1522.67. For the same compound, the “NKX3-2 (NM_001189) gene expression, Mean” value was 358.543, the “NM_014745 gene expression, Mean” value was 246.953 and the “NPAS1 (NM_002517) gene expression, Mean” value was 227.998. The “NPTX2 (NM_002523) gene expression, Mean” value was 279.223, the “ODZ3 (NM_0010804) gene expression, Mean” value was 220.124 and the “P4HB (NM_000918) gene expression, Mean” value was 2039.07. For the same compound, the “PACSIN1 (NM_020804) gene expression, Mean” value was 268.257, the “PCDH19 (NM_020766) gene expression, Mean” value was 187.553 and the “PCK2 (NM_0010180) gene expression, Mean” value was 126.174. The “PDZD4 (NM_032512) gene expression, Mean” value was 283.495, the “PEMT (NM_148172) gene expression, Mean” value was 1036.99 and the “PEX14 (NM_004565) gene expression, Mean” value was 423.992. The “PGM1 (NM_002633) gene expression, Mean” value was 3256.12, the “PHC1 (NM_004426) gene expression, Mean” value was 2226.1 and the “PIM2 (NM_006875) gene expression, Mean” value was 2475.84. For the same compound, the “PITPNC1 (NM_181671) gene expression, Mean” value was 287.618, the “PNKP (NM_007254) gene expression, Mean” value was 570.846 and the “PPAP2A (NM_176895) gene expression, Mean” value was 646.273. For the same compound, the “PPP1R1B (NM_181505) gene expression, Mean” value was 588.401, the “PQLC3 (NM_152391) gene expression, Mean” value was 307.634 and the “PRSS8 (NM_002773) gene expression, Mean” value was 925.924. For the same compound, the “PSAT1 (NM_021154) gene expression, Mean” value was 2370.22, the “PTOV1 (NM_017432) gene expression, Mean” value was 1244.12 and the “PTPLA (NM_014241) gene expression, Mean” value was 295.309. The “RAB3IP (NM_175624) gene expression, Mean” value was 976.727, the “RALY (NM_007367) gene expression, Mean” value was 1409.6 and the “RASIP1 (NM_017805) gene expression, Mean” value was 236.587. For the same compound, the “RASL11B (NM_023940) gene expression, Mean” value was 570.022, the “RCN2 (NM_002902) gene expression, Mean” value was 957.657 and the “REEP6 (NM_138393) gene expression, Mean” value was 581.805. The “RNF130 (NM_018434) gene expression, Mean” value was 258.36, the “ROD1 (NM_005156) gene expression, Mean” value was 1065.57 and the “RPS6KA2 (NM_0010069) gene expression, Mean” value was 170.158. For the same compound, the “SAT1 (NM_002970) gene expression, Mean” value was 2411.02, the “SCARB1 (NM_005505) gene expression, Mean” value was 698.95 and the “SCNN1A (NM_001038) gene expression, Mean” value was 2384.6. The “SEMA4B (NM_198925) gene expression, Mean” value was 455.134, the “SEMA4D (NM_006378) gene expression, Mean” value was 404.578 and the “SEMA6B (NM_032108) gene expression, Mean” value was 327.203. The “SH2B3 (NM_005475) gene expression, Mean” value was 459.878, the “SLC3A2 (NM_0010132) gene expression, Mean” value was 701.201 and the “SLC8A2 (NM_015063) gene expression, Mean” value was 221.546. The “SLC16A10 (NM_018593) gene expression, Mean” value was 222.7, the “SLC22A23 (NM_021945) gene expression, Mean” value was 371.628 and the “SND1 (NM_014390) gene expression, Mean” value was 806.495. The “SOX2 (NM_003106) gene expression, Mean” value was 507.636, the “SPRY1 (NM_005841) gene expression, Mean” value was 278.849 and the “SPSB2 (NM_032641) gene expression, Mean” value was 738.293. For the same compound, the “SRPX (NM_006307) gene expression, Mean” value was 221.585, the “SURF6 (NM_006753) gene expression, Mean” value was 1956.16 and the “TBCD (NM_005993) gene expression, Mean” value was 565.581. The “TCEA2 (NM_198723) gene expression, Mean” value was 471.659, the “TCF7L1 (NM_031283) gene expression, Mean” value was 182.485 and the “TIMP4 (NM_003256) gene expression, Mean” value was 657.953. For the same compound, the “TMC6 (NM_007267) gene expression, Mean” value was 426.897, the “TMEM145 (NM_173633) gene expression, Mean” value was 204.077 and the “TPST2 (NM_0010085) gene expression, Mean” value was 683.535. The “TRAPPC9 (NM_031466) gene expression, Mean” value was 145.068, the “TSPAN9 (NM_006675) gene expression, Mean” value was 1493.67 and the “TUBB4 (NM_006087) gene expression, Mean” value was 455.752. For the same compound, the “UBE2E2 (NM_152653) gene expression, Mean” value was 521.892, the “UNC84B (NM_015374) gene expression, Mean” value was 307.131 and the “VCX2 (NM_016378) gene expression, Mean” value was 178.538. The “VCX3A (NM_016379) gene expression, Mean” value was 405.641, the “VCX3B (NM_0010018) gene expression, Mean” value was 466.812 and the “VSNL1 (NM_003385) gene expression, Mean” value was 462.603. For the same compound, the “WDR8 (NM_017818) gene expression, Mean” value was 819.149, the “XBP1 (NM_0010795) gene expression, Mean” value was 860.839 and the “XM_373896 gene expression, Mean” value was 451.855. The “XM_926633 gene expression, Mean” value was 6671.37, the “XM_932919 gene expression, Mean” value was 278.004 and the “XM_933796 gene expression, Mean” value was 430.873. The “XM_943677 gene expression, Mean” value was 268.065, the “ZBTB46 (NM_025224) gene expression, Mean” value was 246.643 and the “ZSWIM4 (NM_023072) gene expression, Mean” value was 558.806. The “HIST1H2BK (NM_080593) gene expression, Mean” value (first HIST1H2BK entry (r906)) was 1161.66, the “TRPC4AP (NM_015638) gene expression, Mean” value (first TRPC4AP entry (r880)) was 1093.15 and the “HIST1H2BK (NM_080593) gene expression, Mean” value (second HIST1H2BK entry (r952)) was 355.319. The “TRPC4AP (NM_015638) gene expression, Mean” value (second TRPC4AP entry (r892)) was 1137.74.
